Experiments:
PI3Kalpha = PI3Kalpha (Homo sapiens, UniProt P42336); test: Biochemical PI3Kalpha assay (neomycin SPA, lipid phosphorylation); settings: human recombinant GST-PI3K
In short: (§1)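 Recombinant PI3K incubated with lipid substrate and radioactive ATP for 120 min at room temperature with gentle stirring, then stopped with neomycin-coated PVT-SPA beads, ATP 60 mM and EDTA 6.2 mM in PBS. After 60 min bead binding and centrifugation, radioactive Ptdlns(3)P counted by scintillation.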

PI3Kbeta = PI3Kbeta (Homo sapiens, UniProt P42338); test: Biochemical PI3Kbeta assay (neomycin SPA, lipid phosphorylation); settings: human recombinant GST-PI3K
In short: as §1

[1] = target: recombinant PI3Kalpha (shortened form of the catalytic subunit) (Homo sapiens, UniProt P42336); test: BIACORE PI3K binding assay (SPR); settings: 25° C.
In short: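 Contact time was 180 s and dissociation 240 s, in HEPES pH 7.40 buffer with 2% DMSO. Solvent-corrected, double-referenced data were fitted to a 1:1 model with mass transport.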

[2] = system: PI3K-dependent phosphorylation of PKB at Serin 473 in PC3 cells; test: Cellular PI3K assay (P-S473-PKB Luminex assay in PC3 cells); format: cell-based; settings: Homo sapiens, PC-3, 0.5 h; PC3 cells, 30 min, serum-free, P-S473-PKB; read-out: IC50 (cell)
In short: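 PC3 cells were exposed for 30 min under serum-free conditions to 7 concentrations of compound, then lysed. Lysates were captured overnight at 4°C on anti-total-PKB Luminex beads and detected with P-S473-PKB antibody plus PE-labelled secondary.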

DNA-PK protein complex = DNA-PK protein complex (Homo sapiens, UniProt P78527); test: Biochemical DNA-PK assay (FlashPlate)
In short: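 Streptavidin-coated FlashPlate radiometric kinase assay, stopped with 200 mM EDTA, then wells washed with 0.9% NaCl and bound radioactivity counted. Blank (non-specific reaction) defined with a proprietary kinase inhibitor at 10 μM.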

mTOR = target: T1, mTOR (Homo sapiens, UniProt P42345); test: Biochemical mTOR assay (Millipore mTOR assay kit)
T1 construct: purchased Millipore 14-770
Experimental: The biochemical mTOR assay was carried out by the method described in the Millipore mTOR assay kit (catalogue number 14-770).

T1 sequence (P42345 1362-2549 limits assumed): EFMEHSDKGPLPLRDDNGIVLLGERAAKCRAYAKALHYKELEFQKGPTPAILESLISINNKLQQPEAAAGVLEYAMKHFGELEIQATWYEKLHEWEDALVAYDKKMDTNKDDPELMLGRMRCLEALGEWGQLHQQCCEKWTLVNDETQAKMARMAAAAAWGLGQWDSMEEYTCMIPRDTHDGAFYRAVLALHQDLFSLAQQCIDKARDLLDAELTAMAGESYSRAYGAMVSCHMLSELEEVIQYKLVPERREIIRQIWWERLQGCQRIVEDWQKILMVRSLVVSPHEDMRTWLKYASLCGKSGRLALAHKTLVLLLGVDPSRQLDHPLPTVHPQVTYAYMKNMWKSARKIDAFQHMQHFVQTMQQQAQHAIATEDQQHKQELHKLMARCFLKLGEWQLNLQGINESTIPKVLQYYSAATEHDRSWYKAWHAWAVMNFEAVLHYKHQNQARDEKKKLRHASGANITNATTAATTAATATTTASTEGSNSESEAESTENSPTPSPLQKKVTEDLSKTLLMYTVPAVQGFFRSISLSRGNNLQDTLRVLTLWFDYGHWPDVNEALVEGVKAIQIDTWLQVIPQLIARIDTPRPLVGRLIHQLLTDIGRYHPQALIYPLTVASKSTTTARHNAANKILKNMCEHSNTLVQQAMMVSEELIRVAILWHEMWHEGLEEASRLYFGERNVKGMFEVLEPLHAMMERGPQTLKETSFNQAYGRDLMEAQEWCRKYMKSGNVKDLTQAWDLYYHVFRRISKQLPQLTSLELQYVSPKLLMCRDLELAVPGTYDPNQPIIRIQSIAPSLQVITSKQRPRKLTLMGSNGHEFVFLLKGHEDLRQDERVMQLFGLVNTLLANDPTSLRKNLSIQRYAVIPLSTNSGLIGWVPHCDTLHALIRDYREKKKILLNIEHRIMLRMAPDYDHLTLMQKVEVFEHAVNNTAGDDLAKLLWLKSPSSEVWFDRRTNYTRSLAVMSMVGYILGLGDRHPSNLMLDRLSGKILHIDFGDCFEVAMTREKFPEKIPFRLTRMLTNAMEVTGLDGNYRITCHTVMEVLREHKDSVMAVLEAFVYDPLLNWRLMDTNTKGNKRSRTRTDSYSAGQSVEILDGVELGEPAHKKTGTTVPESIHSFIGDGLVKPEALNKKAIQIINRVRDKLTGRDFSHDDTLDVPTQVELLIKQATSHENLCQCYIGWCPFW
recombinant PI3Kalpha (shortened form of the catalytic subunit), sequence (P42336 151-1068 limits assumed): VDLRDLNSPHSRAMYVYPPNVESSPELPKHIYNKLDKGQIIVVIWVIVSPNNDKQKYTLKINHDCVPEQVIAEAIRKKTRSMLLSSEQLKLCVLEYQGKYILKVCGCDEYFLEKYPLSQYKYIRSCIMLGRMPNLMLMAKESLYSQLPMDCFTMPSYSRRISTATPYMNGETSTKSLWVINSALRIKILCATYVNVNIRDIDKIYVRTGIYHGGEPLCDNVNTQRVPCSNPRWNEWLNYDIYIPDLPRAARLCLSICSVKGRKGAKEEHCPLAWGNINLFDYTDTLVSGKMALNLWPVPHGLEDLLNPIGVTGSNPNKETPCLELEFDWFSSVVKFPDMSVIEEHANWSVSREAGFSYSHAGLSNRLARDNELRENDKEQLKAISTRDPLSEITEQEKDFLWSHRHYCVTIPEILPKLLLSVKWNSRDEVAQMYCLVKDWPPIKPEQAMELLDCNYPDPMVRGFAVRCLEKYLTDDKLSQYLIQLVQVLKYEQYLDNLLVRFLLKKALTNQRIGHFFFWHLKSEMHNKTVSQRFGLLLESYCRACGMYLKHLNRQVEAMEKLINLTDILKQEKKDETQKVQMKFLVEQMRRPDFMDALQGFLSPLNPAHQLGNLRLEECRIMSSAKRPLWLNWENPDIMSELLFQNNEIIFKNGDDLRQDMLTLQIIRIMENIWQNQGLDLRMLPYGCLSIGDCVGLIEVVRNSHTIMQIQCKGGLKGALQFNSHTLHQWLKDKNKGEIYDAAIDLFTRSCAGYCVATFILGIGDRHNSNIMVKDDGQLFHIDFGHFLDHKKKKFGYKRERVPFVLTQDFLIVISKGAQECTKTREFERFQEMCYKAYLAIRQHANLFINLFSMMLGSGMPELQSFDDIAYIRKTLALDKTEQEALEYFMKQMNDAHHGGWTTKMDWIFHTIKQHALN
PI3Kbeta, sequence (P42338 whole entry): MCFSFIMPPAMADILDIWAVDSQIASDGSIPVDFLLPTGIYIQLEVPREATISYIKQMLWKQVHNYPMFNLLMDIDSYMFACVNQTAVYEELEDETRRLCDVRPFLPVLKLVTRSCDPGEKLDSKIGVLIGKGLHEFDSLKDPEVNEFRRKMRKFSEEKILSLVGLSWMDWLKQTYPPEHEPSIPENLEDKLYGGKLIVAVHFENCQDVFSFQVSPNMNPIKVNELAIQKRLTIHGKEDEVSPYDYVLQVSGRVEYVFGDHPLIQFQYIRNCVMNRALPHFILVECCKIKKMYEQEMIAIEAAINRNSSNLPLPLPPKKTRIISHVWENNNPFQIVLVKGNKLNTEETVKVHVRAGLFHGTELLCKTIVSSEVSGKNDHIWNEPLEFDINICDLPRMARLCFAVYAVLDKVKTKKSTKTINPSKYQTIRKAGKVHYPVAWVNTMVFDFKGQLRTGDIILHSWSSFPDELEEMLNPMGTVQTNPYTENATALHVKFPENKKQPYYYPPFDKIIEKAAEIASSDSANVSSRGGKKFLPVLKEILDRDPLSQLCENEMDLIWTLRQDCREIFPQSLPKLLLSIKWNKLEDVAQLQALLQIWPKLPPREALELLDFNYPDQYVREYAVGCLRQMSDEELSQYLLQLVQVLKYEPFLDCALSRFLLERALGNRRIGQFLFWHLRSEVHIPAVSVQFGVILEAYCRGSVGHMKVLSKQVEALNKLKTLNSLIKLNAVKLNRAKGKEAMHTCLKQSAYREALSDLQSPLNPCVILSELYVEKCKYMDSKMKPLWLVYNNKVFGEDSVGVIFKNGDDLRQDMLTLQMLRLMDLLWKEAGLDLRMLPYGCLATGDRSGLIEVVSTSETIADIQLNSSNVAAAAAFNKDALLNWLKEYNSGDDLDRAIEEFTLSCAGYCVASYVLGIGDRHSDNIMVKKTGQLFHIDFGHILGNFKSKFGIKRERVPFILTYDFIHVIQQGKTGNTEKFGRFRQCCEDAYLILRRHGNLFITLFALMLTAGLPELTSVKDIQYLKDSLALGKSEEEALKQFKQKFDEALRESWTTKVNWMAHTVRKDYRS
PI3Kbeta, sequence (P27986 whole entry partner): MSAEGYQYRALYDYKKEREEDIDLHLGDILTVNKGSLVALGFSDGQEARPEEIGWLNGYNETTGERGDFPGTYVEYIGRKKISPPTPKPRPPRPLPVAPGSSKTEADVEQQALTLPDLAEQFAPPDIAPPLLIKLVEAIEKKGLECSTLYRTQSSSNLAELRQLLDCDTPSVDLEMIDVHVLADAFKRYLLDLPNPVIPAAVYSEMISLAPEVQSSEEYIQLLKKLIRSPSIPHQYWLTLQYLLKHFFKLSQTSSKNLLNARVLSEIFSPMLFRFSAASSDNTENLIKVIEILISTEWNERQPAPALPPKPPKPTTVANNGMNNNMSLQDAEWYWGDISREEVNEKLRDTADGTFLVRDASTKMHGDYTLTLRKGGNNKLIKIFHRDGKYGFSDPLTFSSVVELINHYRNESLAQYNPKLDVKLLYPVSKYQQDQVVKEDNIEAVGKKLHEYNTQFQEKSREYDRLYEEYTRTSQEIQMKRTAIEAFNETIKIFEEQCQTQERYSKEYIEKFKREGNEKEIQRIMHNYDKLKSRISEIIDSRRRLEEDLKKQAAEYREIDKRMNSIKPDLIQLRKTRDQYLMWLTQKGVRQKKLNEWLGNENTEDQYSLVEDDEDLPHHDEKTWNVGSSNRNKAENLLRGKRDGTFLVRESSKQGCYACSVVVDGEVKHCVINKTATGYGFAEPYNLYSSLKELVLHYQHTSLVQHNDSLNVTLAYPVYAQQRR
PI3Kalpha, sequence (P42336 whole entry): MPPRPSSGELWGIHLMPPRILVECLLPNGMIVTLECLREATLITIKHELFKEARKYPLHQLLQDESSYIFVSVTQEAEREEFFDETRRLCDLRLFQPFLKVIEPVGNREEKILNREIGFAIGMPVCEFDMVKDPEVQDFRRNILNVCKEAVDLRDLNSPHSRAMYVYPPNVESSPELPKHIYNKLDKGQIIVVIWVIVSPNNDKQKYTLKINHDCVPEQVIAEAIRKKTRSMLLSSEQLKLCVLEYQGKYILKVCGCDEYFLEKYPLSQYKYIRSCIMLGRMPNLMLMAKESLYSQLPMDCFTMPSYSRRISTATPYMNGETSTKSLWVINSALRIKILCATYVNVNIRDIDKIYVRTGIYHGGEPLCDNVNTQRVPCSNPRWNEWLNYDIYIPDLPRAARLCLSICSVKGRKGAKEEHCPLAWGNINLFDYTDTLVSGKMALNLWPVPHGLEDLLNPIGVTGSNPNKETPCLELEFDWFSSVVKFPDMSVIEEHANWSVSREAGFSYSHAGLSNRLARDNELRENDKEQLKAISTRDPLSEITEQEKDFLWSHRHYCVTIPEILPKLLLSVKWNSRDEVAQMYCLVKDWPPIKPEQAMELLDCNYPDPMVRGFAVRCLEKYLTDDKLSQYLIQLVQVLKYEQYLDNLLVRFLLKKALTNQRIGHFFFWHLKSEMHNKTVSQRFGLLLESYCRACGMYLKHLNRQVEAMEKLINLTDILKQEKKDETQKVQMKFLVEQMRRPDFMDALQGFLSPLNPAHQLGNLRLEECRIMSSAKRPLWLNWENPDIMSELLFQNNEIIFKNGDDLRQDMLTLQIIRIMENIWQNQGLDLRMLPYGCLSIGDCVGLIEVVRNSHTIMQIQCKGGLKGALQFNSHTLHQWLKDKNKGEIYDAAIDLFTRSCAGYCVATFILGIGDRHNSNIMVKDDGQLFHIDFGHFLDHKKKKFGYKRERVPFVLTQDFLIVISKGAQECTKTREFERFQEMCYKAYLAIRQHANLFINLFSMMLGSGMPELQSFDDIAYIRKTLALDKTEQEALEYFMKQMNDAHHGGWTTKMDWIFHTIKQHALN
PI3Kalpha, sequence (P27986 whole entry partner): as the sequence (P27986 whole entry partner) above

Structure (SMILES) | IC50 (PI3Kalpha) [nM] | IC50 (PI3Kbeta) [nM] | Kd [1] [nM] | IC50 [2] [nM] | IC50 (DNA-PK protein complex) [nM] | IC50 (mTOR) [nM] | melting point
Cn1cc(-c2cc(-c3cnc4ccccc4c3)ccn2)n(-c2ccc(C(C)(C)C#N)cc2)c1=O [Example A1, 2-Methyl-2-{4-[3-methyl-2-oxo-5-(4-quinolin-3-ylpyridin-2-yl)-2,3-dihydroimidazol-1-yl]phenyl}propionitrile] | 100 to 10000 | 100 to 10000 | 100 to 10000 | 100 to 10000 | 0.1 to 100 | 0.1 to 100 | 228 °C
COc1ccc(-c2ccnc(-c3cn(C)c(=O)n3-c3ccc(C(C)(C)C#N)cc3)c2)cn1 [Example A9, 2-{4-[5-(6-Methoxy-[3,4′]bipyridinyl-2′-yl)-3-methyl-2-oxo-2,3-dihydroimidazol-1-yl]phenyl}-2-methylpropionitrile] | 100 to 10000 | 100 to 10000 | 100 to 10000 | 100 to 10000 | 0.1 to 100 | 100 to 10000 | 187 °C
Cn1cc(-c2cc(-c3cnc4[nH]ccc4c3)ccn2)n(-c2ccc(C(C)(C)C#N)cc2)c1=O [Example A12, 2-Methyl-2-(4-{3-methyl-2-oxo-5-[4-(1H-pyrrolo[2,3-b]pyridin-5-yl)pyridin-2-yl]-2,3-dihydroimidazol-1-yl}phenyl)propionitrile] | 0.1 to 100 | 100 to 10000 | 0.1 to 100 | 0.1 to 100 | 0.1 to 100 | 100 to 10000 | 248 °C
COc1ccc(-c2ccnc(-c3cn(C)c(=O)n3-c3ccc(C(C)(C)C#N)cc3)c2)cc1 [Example A13, 2-(4-{5-[4-(4-Methoxyphenyl)pyridin-2-yl]-3-methyl-2-oxo-2,3-dihydroimidazol-1-yl}phenyl)-2-methylpropionitrile] | > 10000 | > 10000 | 100 to 10000 | > 10000 | 0.1 to 100 | 100 to 10000 | 219 °C
Cn1cc(-c2cc(-c3cnc4ccccc4c3)ccn2)n(-c2ccc(C(C)(C)C(N)=O)cc2)c1=O [Example A21, 2-{-4-[3-Methyl-2-oxo-5-(4-quinolin-3-ylpyridin-2-yl)-2,3-dihydroimidazol-1-yl]-phenyl}isobutyramide] | 100 to 10000 | 100 to 10000 | 0.1 to 100 | > 10000 | 0.1 to 100 | 100 to 10000 | 259 °C
Cn1cc(-c2cc(-c3ccsc3)ccn2)n(-c2ccc(C(C)(C)C#N)cc2)c1=O [Example A26, 2-Methyl-2-{4-[3-methyl-2-oxo-5-(4-thiophen-3-ylpyridin-2-yl)-2,3-dihydro-imidazol-1-yl]phenyl}propionitrile] | 100 to 10000 | > 10000 | 100 to 10000 | > 10000 | 0.1 to 100 | 100 to 10000 | 209 °C
N#CCc1ccc(-n2c(-c3cc(-c4cnc5[nH]ccc5c4)ccn3)c[nH]c2=O)cc1 [Example A31, (4-{2-oxo-5-[4-(1H-pyrrolo[2,3-b]pyridin-5-yl)pyridin-2-yl]-2,3-dihydroimidazol-1-yl}phenyl)acetonitrile] | 100 to 10000 | 100 to 10000 | 0.1 to 100 | 100 to 10000 | 0.1 to 100 | 100 to 10000 | > 410 °C (dec.)
Cn1cc(-c2cc(-c3cnc4[nH]ccc4c3)ccn2)n(-c2ccc(CC#N)cc2)c1=O [Example A32, (4-{3-Methyl-2-oxo-5-[4-(1H-pyrrolo[2,3-b]pyridin-5-yl)pyridin-2-yl]-2,3-dihydroimidazol-1-yl}phenyl)acetonitrile] | 0.1 to 100 | 100 to 10000 | 0.1 to 100 | 100 to 10000 | 0.1 to 100 | 0.1 to 100 | 252 °C
Cn1cc(-c2cc(-c3cnc4[nH]ccc4c3)ccn2)n(-c2ccc(C(C)(C)C(N)=O)cc2)c1=O [Example A34, 2-(4-{3-Methyl-2-oxo-5-[4-(1H-pyrrolo[2,3-b]pyridin-5-yl)pyridin-2-yl]-2,3-dihydroimidazol-1-yl}phenyl)isobutyramide] | 0.1 to 100 | 100 to 10000 | – | 100 to 10000 | 0.1 to 100 | 100 to 10000 | 299 °C
Cn1cc(-c2cc(-c3cnc4[nH]ccc4c3)ccn2)n(-c2ccc(C(C)(C)CN)cc2)c1=O [Example A35, 3-[4-(2-Amino-1,1-dimethylethyl)phenyl]-1-methyl-4-[4-(1H-pyrrolo[2,3-b]-pyridin-5-yl)pyridin-2-yl]-1,3-dihydroimidazol-2-one] | 100 to 10000 | 100 to 10000 | – | 100 to 10000 | 0.1 to 100 | 100 to 10000 | 91 °C
CCOC(=O)C(C)(C)c1ccc(-n2c(-c3cc(-c4cnc5ccccc5c4)ccn3)cn(C)c2=O)cc1 [Example A36, Ethyl 2-methyl-2-{4-[3-methyl-2-oxo-5-(4-quinolin-3-ylpyridin-2-yl)-2,3-dihydro-imidazol-1-yl]phenyl}propionate] | 100 to 10000 | > 10000 | 100 to 10000 | > 10000 | 0.1 to 100 | 100 to 10000 | 158 °C
Cn1cc(-c2cc(-c3cnc4[nH]ncc4c3)ccn2)n(-c2ccc(C(C)(C)C#N)cc2)c1=O [Example A41, 2-Methyl-2-(4-{3-methyl-2-oxo-5-[4-(1H-pyrazolo[3,4-b]pyridin-5-yl)pyridin-2-yl]-2,3-dihydroimidazol-1-yl}phenyl)propionitrile] | 0.1 to 100 | 100 to 10000 | 0.1 to 100 | 100 to 10000 | 0.1 to 100 | 100 to 10000 | 294 °C
CNc1ccc(-c2ccnc(-c3cn(C)c(=O)n3-c3ccc(C(C)(C)C#N)cc3)c2)cn1 [Example A42, 2-Methyl-2-{4-[3-methyl-5-(6-methylamino-[3,4′]bipyridinyl-2′-yl)-2-oxo-2,3-dihydroimidazol-1-yl]phenyl}propionitrile] | 100 to 10000 | 100 to 10000 | 0.1 to 100 | 100 to 10000 | 0.1 to 100 | – | 191 °C
Cn1cc(-c2cc(-c3cnc4[nH]ccc4c3)ccn2)n(-c2ccccc2)c1=O [Example A47, 1-Methyl-3-phenyl-4-[4-(1H-pyrrolo[2,3-b]pyridin-5-yl)pyridin-2-yl]-1,3-dihydroimidazol-2-one] | 100 to 10000 | 100 to 10000 | – | 100 to 10000 | 0.1 to 100 | 100 to 10000 | 264 °C
Cn1cc(-c2cc(-c3ccc4[nH]ccc4c3)ccn2)n(-c2ccc(C(C)(C)C#N)cc2)c1=O [Example A53, 2-(4-{5-[4-(1H-Indol-5-yl)pyridin-2-yl]-3-methyl-2-oxo-2,3-dihydroimidazol-1-yl}-phenyl)-2-methylpropionitrile] | 100 to 10000 | > 10000 | 100 to 10000 | 100 to 10000 | 0.1 to 100 | – | 238 °C
COc1cc(-n2c(-c3cc(-c4cnc5[nH]ccc5c4)ccn3)cn(C)c2=O)ccc1Cl [Example A58, 3-(4-Chloro-3-methoxyphenyl)-1-methyl-4-[4-(1H-pyrrolo[2,3-b]pyridin-5-yl)-pyridin-2-yl]-1,3-dihydroimidazol-2-one] | 100 to 10000 | 100 to 10000 | 100 to 10000 | 100 to 10000 | 100 to 10000 | – | 223 °C
